Source: patent US12624018B1, “Inhibitors of RIPK2 and medical uses thereof” (Odyssey Therapeutics, Inc., priority 2022, dated 2026)
Counter-ions that a name gives are not always drawn.

Legend:
RIPK2 enzyme = molecular target: T1, RIPK2 enzyme (Homo sapiens, UniProt O43353); test: RIPK2 inhibition (ADP-Glo Kinase Assay); format: biochemical; conditions: RIPK2 5 nM, ATP 150 μM, MBP substrate, read-out: RIPK2 IC50
T1 construct: purchased Carna 09-128
How it was run: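 Human RIPK2 (5 nM) preincubated with compound 30 min at room temperature in 50 mM HEPES pH 7.5, 10 mM MgCl2, 2 mM DTT, 1 mM EGTA, 0.01% Brij-35, 0.05% BSA; native swine MBP as substrate. ADP formed quantified by ADP-Glo luminescence; percent inhibition relative to DMSO and no-enzyme controls.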

human NOD2 signaling = test: Inhibition of human NOD2 signaling in HEK-Blue-hNOD2 cells (L18-MDP stimulated, SEAP reporter); format: cell-based; conditions: Homo sapiens, HEK-Blue hNOD2, HEK-Blue-hNOD2 cells, NOD2 ligand stimulation, SEAP reporter; read-out: hNOD2 IC50
Method: Materials: Human NOD32-expressing 1TEK293 cells, HEK-Blue™-hNOD2 cells, were developed by Invivogen (catalogue number: hkb-hnod2) using co-transfection of the human NOD2 gene and an optimized secreted embryonic alkaline phosphatase (SEAP) reporter gene into HTEK293 cells. The cell maintenance medium consisted of DMEM (Giboc, 21063-029), heat inactivated FBS, penicillin (100 U/mL), streptomycin (100 μg/mL), Normocin (100 μg/mL), Blasticidin (30 μg/mL), and Zeocin (100 μg/mL). HEK-Blue™-hNOD2 cells were transferred to assay medium consisting of DMEM (Giboc, 21063-029), heat inactivated FBS, penicillin (100 U/mL) and streptomycin (100 μg/mL) prior to stimulation. Stimulation with a NOD2 ligand, L18-MDP (Invivogen, catalogue number: tlrl-lmdp) activated NF-κB and AP-1 which induced the production of SEAP. Levels of SEAP were determined with HEK-Blue™ Detection (referred to as QUANTI-Blue solution), a cell culture medium that allows for real-time detection of SEAP. QUANTI-Blue solution was prepared by adding 1 mL of QB reagent and 1 mL of QB buffer to 98 mL of sterile H2O. Test compounds were prepared into a 10 mM DMSO solution and were serially diluted into 10 points using a 3-fold dilution in a 384 well plate using a TECAN EVO200.
Method: In a 384 well plate, 40 nL of test compound was dispensed using Echo550. HEK-Blue™-hNOD2 cells (Invivogen) were prepared into a cell suspension and 40 μL of the cell suspension (12500 cells per well) was dispensed into the 384 well plate. To activate NOD2 signaling, 40 nL of L18-MDP (final concentration of 0.5 ng/mL) was added and the plate was incubated at 37° C. in a CO2 incubator for 24 hours. After the 24-hour incubation, 5 μL of the induced HEK-Blue hNOD2 cell supernatant was transferred to a new 384-well plate, centrifuged, and 45 μL of QUANTI-Blue solution was added per well and incubated for 3 hours at 37° C. SEAP levels were measured using an Ensight at 620 nm. Percent inhibition of NOD2 signaling was determined using the following equation: (high control−test compound signal)/(High control−low control)×100. The reaction high control was determined using wells with DMSO, cells, L18-MDP, and QUANTI-Blue solution. The reaction low control was determined using wells with DMSO, cells, and QUANTI-Blue solution. 4-parametric curve fit was used to determine the test compound concentration that results in 50% reduction of L18-MDP-driven human NOD2 signaling.
Using the assay described above, inhibition of hNOD2 signaling was also evaluated for GSK 2983559 (Haile at al., J. Med. Chem. 2019, 62, 14, 6482-6494), a known RIPK2 kinase inhibitor: […]

T1 sequence (O43353 1-299 limits assumed): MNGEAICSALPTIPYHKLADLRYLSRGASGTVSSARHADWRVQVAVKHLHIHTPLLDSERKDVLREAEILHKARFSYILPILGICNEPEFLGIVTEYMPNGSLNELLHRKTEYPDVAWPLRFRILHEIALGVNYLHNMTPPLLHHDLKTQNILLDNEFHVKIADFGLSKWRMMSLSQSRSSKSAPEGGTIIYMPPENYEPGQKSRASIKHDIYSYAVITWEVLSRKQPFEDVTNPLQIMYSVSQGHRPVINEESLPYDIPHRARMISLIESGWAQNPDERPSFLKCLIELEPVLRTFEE

SMILES | IC50 (RIPK2 enzyme) [nM] | IC50 (human NOD2 signaling) [nM]
Cc1cc(CC(=O)Nc2cnn(C(C)(C)C)c2)c(F)cc1Oc1ccnc2ccc(-c3ncccc3C(F)(F)F)cc12 [Compound 522, N-(1-(tert-butyl)-1H-pyrazol-4-yl)-2-(2-fluoro-5-methyl-4-((6-(3-(trifluoromethyl)pyridin-2-yl)quinolin-4-yl)oxy)phenyl)acetamide] | 8.6 | 25.8
CC(C)(C)n1cc(NC(=O)Cc2cc(Cl)c(Oc3ccnc4ccc(CS(C)(=O)=O)cc34)cc2F)cn1 [Compound 561, N-(1-(tert-butyl)-1H-pyrazol-4-yl)-2-(5-chloro-2-fluoro-4-((6-((methylsulfonyl)methyl)quinolin-4-yl)oxy)phenyl)acetamide] | < 2.5 | 15.4
CNC(=O)c1cc2c(Oc3cc(F)c(CC(=O)Nc4cnn(C(C)(C)C)c4)cc3C)ccnc2cc1C [Compound 564, 4-(4-(2-((1-(tert-butyl)-1H-pyrazol-4-yl)amino)-2-oxoethyl)-5-fluoro-2-methylphenoxy)-N,7-dimethylquinoline-6-carboxamide] | < 2.5 | 10.8
CNC(=O)c1cc2c(Oc3cc(F)c(CC(=O)Nc4cnn(C(C)(C)C)c4)cc3C)ccnc2cc1Cl [Compound 565, 4-(4-(2-((1-(tert-butyl)-1H-pyrazol-4-yl)amino)-2-oxoethyl)-5-fluoro-2-methylphenoxy)-7-chloro-N-methylquinoline-6-carboxamide] | < 2.5 | 6.9
CNC(=O)Cc1ccc2nccc(Oc3cc(F)c(CC(=O)Nc4cnn(C(C)(C)C)c4)cc3C)c2c1 [Compound 567, N-(1-(tert-butyl)-1H-pyrazol-4-yl)-2-(2-fluoro-5-methyl-4-((6-(2-(methylamino)-2-oxoethyl)quinolin-4-yl)oxy)phenyl)acetamide formic acid salt] | < 2.5 | 9.8
CNC(=O)C(C)(C)c1ccc2nccc(Oc3cc(F)c(CC(=O)Nc4cnn(C(C)(C)C)c4)cc3C)c2c1 [Compound 569, 2-(4-(4-(2-((1-(tert-butyl)-1H-pyrazol-4-yl)amino)-2-oxoethyl)-5-fluoro-2-methylphenoxy)quinolin-6-yl)-N,2-dimethylpropanamide] | < 2.5 | 10.4
Cc1cc(CC(=O)Nc2cnn(C(C)(C)C)c2)c(F)cc1Oc1ccnc2ccc(C3(C(N)=O)CC3)cc12 [Compound 570, 1-(4-(4-(2-((1-(tert-butyl)-1H-pyrazol-4-yl)amino)-2-oxoethyl)-5-fluoro-2-methylphenoxy)quinolin-6-yl)cyclopropane-1-carboxamide] | 2.7 | 10.5
CNC(=O)C1(c2ccc3nccc(Oc4cc(F)c(CC(=O)Nc5cnn(C(C)(C)C)c5)cc4C)c3c2)CC1 [Compound 571, 1-(4-(4-(2-((1-(tert-butyl)-1H-pyrazol-4-yl)amino)-2-oxoethyl)-5-fluoro-2-methylphenoxy)quinolin-6-yl)-N-methylcyclopropane-1-carboxamide formic acid salt] | 2.9 | 4.5
CNC(=O)C(F)(F)c1ccc2nccc(Oc3cc(F)c(CC(=O)Nc4cnn(C(C)(C)C)c4)cc3C)c2c1 [Compound 573, 2-(4-(4-(2-((1-(tert-butyl)-1H-pyrazol-4-yl)amino)-2-oxoethyl)-5-fluoro-2-methylphenoxy)quinolin-6-yl)-2,2-difluoro-N-methylacetamide] | < 2.5 | 1
[2H]C([2H])([2H])NC(=O)c1ccc2nccc(Oc3ccc(CC(=O)Nc4cnn(C(C)(C)C)c4)cc3C(F)F)c2c1 [Compound 574, 4-(4-(2-((1-(tert-butyl)-1H-pyrazol-4-yl)amino)-2-oxoethyl)-2-(difluoromethyl)phenoxy)-N-(methyl-d3)quinoline-6-carboxamide] | < 2.5 | 3.2
CC(C)(C)n1cc(NC(=O)Cc2ccc(Oc3ccnc4cc(F)c(C(N)=O)cc34)c(C(F)F)c2)cn1 [Compound 575, 4-(4-(2-((1-(tert-butyl)-1H-pyrazol-4-yl)amino)-2-oxoethyl)-2-(difluoromethyl)phenoxy)-7-fluoroquinoline-6-carboxamide] | < 2.5 | 2.2
CNC(=O)c1cc2c(Oc3ccc(CC(=O)Nc4cnn(C(C)(C)C)c4)cc3C(F)F)ccnc2cc1F [Compound 576, 4-(4-(2-((1-(tert-butyl)-1H-pyrazol-4-yl)amino)-2-oxoethyl)-2-(difluoromethyl)phenoxy)-7-fluoro-N-methylquinoline-6-carboxamide] | < 2.5 | 5.2
[2H]C([2H])([2H])NC(=O)c1cc2c(Oc3ccc(CC(=O)Nc4cnn(C(C)(C)C)c4)cc3C(F)F)ccnc2cc1F [Compound 577, 4-(4-(2-((1-(tert-butyl)-1H-pyrazol-4-yl)amino)-2-oxoethyl)-2-(difluoromethyl)phenoxy)-7-fluoro-N-(methyl-d3)quinoline-6-carboxamide] | < 2.5 | 2
COc1cc2nccc(Oc3ccc(CC(=O)Nc4cnn(C(C)(C)C)c4)cc3C(F)F)c2cc1C(N)=O [Compound 578, 4-(4-(2-((1-(tert-butyl)-1H-pyrazol-4-yl)amino)-2-oxoethyl)-2-(difluoromethyl)phenoxy)-7-methoxy-quinoline-6-carboxamide] | < 2.5 | 0.7

Continued, values first:

IC50 (RIPK2 enzyme) [nM] | IC50 (human NOD2 signaling) [nM] | SMILES
< 2.5 | 1.5 | Cc1cc(CC(=O)Nc2cnn(C(C)(C)C)c2)c(F)cc1Oc1ccnc2ccc(C(=O)NC3(C)COC3)cc12 [Compound 514, 4-(4-(2-((1-(tert-butyl)-1H-pyrazol-4-yl)amino)-2-oxoethyl)-5-fluoro-2-methylphenoxy)-N-(3-methyloxetan-3-yl)quinoline-6-carboxamide]
< 2.5 | 0.6 | Cc1cc(CC(=O)Nc2cnn(C(C)(C)C)c2)c(F)cc1Oc1ccnc2ccc(C(=O)N(C)C3(C)CC3)cc12 [Compound 519, 4-(4-(2-((1-(tert-butyl)-1H-pyrazol-4-yl)amino)-2-oxoethyl)-5-fluoro-2-methylphenoxy)-N-methyl-N-(1-methylcyclopropyl)quinoline-6-carboxamide]
< 2.5 | 0.7 | Cc1ccnnc1-c1ccc2nccc(Oc3cc(F)c(CC(=O)Nc4cnn(C(C)(C)C)c4)cc3Cl)c2c1 [Compound 520, N-(1-(tert-butyl)-1H-pyrazol-4-yl)-2-(5-chloro-2-fluoro-4-((6-(4-methylpyridazin-3-yl)quinolin-4-yl)oxy)phenyl)acetamide]
< 2.5 | 2.2 | Cc1cc(CC(=O)Nc2cnn(C(C)(C)C)c2)c(F)cc1Oc1ccnc2ccc(-c3nnc(CO)cc3C)cc12 [Compound 521, N-(1-(tert-butyl)-1H-pyrazol-4-yl)-2-(2-fluoro-4-((6-(6-(hydroxymethyl)-4-methylpyridazin-3-yl)quinolin-4-yl)oxy)-5-methylphenyl)acetamide]
< 2.5 | 0.7 | Cc1cc(CC(=O)Nc2cnn(C(C)(C)C)c2)c(F)cc1Oc1ccnc2ccc(-c3cncnc3C)cc12 [Compound 524, N-(1-(tert-butyl)-1H-pyrazol-4-yl)-2-(2-fluoro-5-methyl-4-((6-(4-methylpyrimidin-5-yl)quinolin-4-yl)oxy)phenyl)acetamide]
< 2.5 | 5.5 | Cc1cc(CC(=O)Nc2cnn(C(C)(C)C)c2)c(F)cc1Oc1ccnc2ccc(-c3ccnnc3C)cc12 [Compound 525, N-(1-(tert-butyl)-1H-pyrazol-4-yl)-2-(2-fluoro-5-methyl-4-((6-(3-methylpyridazin-4-yl)quinolin-4-yl)oxy)phenyl)acetamide]
< 2.5 | 16.1 | Cc1cc(CC(=O)Nc2cnn(C(C)(C)C)c2)c(F)cc1Oc1ccnc2ccc(-c3c(C)ncnc3C)cc12 [Compound 526, N-(1-(tert-butyl)-1H-pyrazol-4-yl)-2-(4-((6-(4,6-dimethylpyrimidin-5-yl)quinolin-4-yl)oxy)-2-fluoro-5-methylphenyl)acetamide]
